In patent US20060099157A1, “Ether alcohols used as solvents and emulsifiers and dispersions containing said ether alcohols” (IFAC GmbH & Co. KG, priority 2002, published 2006):

How the values were obtained:
[1] = Mixing of the ether alcohol solution into C12-C15-alcohol benzoate, stability of the resulting system; format: physicochemical; conditions: for miscibility of the solution with C12-C15-alcohol benzoate: solution in polyethylene glycol monomethyl ether (7 EO)
Procedure: At room temperature (25° C.), a storage time of more than 7 days was determined without resulting in flocculation or phase separation.
(§1) Salicylic acid was dissolved at room temperature in polyethylene glycol monomethyl ether (7 EO). A solution was accessible which comprised more than 10% by weight of salicylic acid in the acid form. The solution could be introduced in any fractions into C12-C15-alcohol benzoate without resulting in precipitation of the salicylic acid.

[2] = Solution in polyethylene glycol monomethyl ether (7 EO); format: physicochemical; conditions: dissolved in polyethylene glycol monomethyl ether (7 EO), room temperature, based on the total solution
Excerpt: A solution was accessible which, based on the total solution, comprised 60% by weight of the light protection agent.
The light protection agent 2-hydroxy-4-methoxybenzophenone (benzophenone-3) could be dissolved at room temperature in polyethylene glycol monomethyl ether (7 EO), the fraction of light protection agent in the solution being more than 30% by weight.
2-Hydroxy-4-methoxybenzophenone-5-sulfonic acid could be dissolved in polyethylene glycol monomethyl ether (7 EO), the resulting solution comprising more than 10% by weight of the light protection agent. The per se water-soluble light protection agent could be introduced into an oil phase as polyethylene glycol monomethyl ether (7 EO) solution so that it could be used in this formulation as oil-soluble light protection filter.
as §1

[3] = cited from earlier work

SMILES	storage time without flocculation or phase separation ([1]; 60% strength solution in C12-C15-alcohol benzoate, room temperature (25° C.))	miscibility of the solution with C12-C15-alcohol benzoate [1]	fraction of the compound in the accessible solution [2]	fraction of light protection agent in solutions hitherto accessible [3]
CCCCC(CC)COC(=O)c1ccc(Nc2nc(Nc3ccc(C(=O)OCC(CC)CCCC)cc3)nc(Nc3ccc(C(=O)OCC(CC)CCCC)cc3)n2)cc1 (centres unmarked) [2,4,6-trianilino-p-(carbo-2′-ethylhexyl-1′-oxy)-1,3,5-triazine]	more than 7 days	any mixing ratios	60 % by weight	
O=C(O)c1ccccc1O [Salicylic acid, reference compound]		any fractions	more than 10 % by weight	
COc1ccc(C(=O)c2ccccc2)c(O)c1 [2-hydroxy-4-methoxybenzophenone]			more than 30 % by weight	at most 20 % by weight
COc1cc(O)c(C(=O)c2ccccc2)cc1S(=O)(=O)O [2-Hydroxy-4-methoxybenzophenone-5-sulfonic acid]			more than 10 % by weight	
